Experimental data taken from ChEMBL document CHEMBL1201862, “PubChem BioAssay data set” (2004).
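Dose response: 5 concentrations. Exposure: 48 h. Format: 96-well plates. Endpoint: linear interpolation; highest concentration if not reached. The concentration for 50% growth inhibition is given as GI50.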 Active and inactive are the calls of the source. Rule as the data show it: active = GI50 up to about 1.1 µM and inactive = higher.

Assays:
Test in all cases: NCI anticancer screen, dose series, 48 h
SK-OV-3 = system: SK-OV-3
ACHN = system: ACHN
HOP-62 = system: HOP-62
Malme-3M = system: Malme-3M
NCI-H23 = system: NCI-H23
HCC 2998 = system: HCC 2998
U-251 = system: U-251
SK-MEL-28 = system: SK-MEL-28
LOX IMVI = system: LOX IMVI
NCI-H226 = system: NCI-H226
OVCAR-8 = system: OVCAR-8
SK-MEL-5 = system: SK-MEL-5
IGROV-1 = system: IGROV-1
RXF 393 = system: RXF 393
CAKI-1 = system: CAKI-1
SF-268 = system: SF-268
HOP-92 = system: HOP-92
RPMI-8226 = system: RPMI-8226

| Structure (SMILES) | GI50 (SK-OV-3) | GI50 (ACHN) | GI50 (HOP-62) | GI50 (Malme-3M) | GI50 (NCI-H23) | GI50 (HCC 2998) | GI50 (U-251) | GI50 (SK-MEL-28) | GI50 (LOX IMVI) | GI50 (NCI-H226) | GI50 (OVCAR-8) | GI50 (SK-MEL-5) | GI50 (IGROV-1) | GI50 (RXF 393) | GI50 (CAKI-1) | GI50 (SF-268) | GI50 (HOP-92) | GI50 (RPMI-8226) |
| --- | --- | --- | --- | --- | --- | --- | --- | --- | --- | --- | --- | --- | --- | --- | --- | --- | --- | --- |
| Cc1cccc(NC(=O)CSc2nnc(Cc3ccccc3)o2)c1 | > 100 µM (inactive) | > 100 µM (inactive) | > 100 µM (inactive) | > 100 µM (inactive) | > 100 µM (inactive) | > 100 µM (inactive) | > 100 µM (inactive) | > 100 µM (inactive) | > 100 µM (inactive) | > 100 µM (inactive) | > 100 µM (inactive) | > 100 µM (inactive) | > 100 µM (inactive) | > 100 µM (inactive) | > 100 µM (inactive) | > 100 µM (inactive) |  |  |
| COc1cc(-c2n[nH]cc2CCCC(=O)Nc2ccccc2[N+](=O)[O-])ccc1O | > 100 µM (inactive) | > 100 µM (inactive) | > 100 µM (inactive) | 19.2 µM (inactive) | > 100 µM (inactive) | > 100 µM (inactive) | 75.2 µM (inactive) | > 100 µM (inactive) | > 100 µM (inactive) | > 100 µM (inactive) | > 100 µM (inactive) | 61.4 µM (inactive) | > 100 µM (inactive) |  | > 100 µM (inactive) | > 100 µM (inactive) | 91.8 µM (inactive) | 40.2 µM (inactive) |
| N#CCCN(c1ccc(/C=C2\N=C(c3ccc(Cl)cc3)OC2=O)cc1)S(=O)(=O)c1ccccc1 | > 100 µM (inactive) | > 100 µM (inactive) | > 100 µM (inactive) |  | > 100 µM (inactive) | > 100 µM (inactive) | > 100 µM (inactive) | > 100 µM (inactive) | > 100 µM (inactive) | 96.2 µM (inactive) | > 100 µM (inactive) | > 100 µM (inactive) | > 100 µM (inactive) |  | > 100 µM (inactive) | > 100 µM (inactive) |  | > 100 µM (inactive) |
| CN(C)CCn1c2c3ccccc3ccc2c2oc(=O)c3ccccc3c21 | 0.895 µM (active) | 5.24 µM (inactive) | 13.2 µM (inactive) | 9.86 µM (inactive) | 6.3 µM (inactive) |  | 7.46 µM (inactive) | 5.68 µM (inactive) | 4.23 µM (inactive) |  | 5.53 µM (inactive) |  | 12.1 µM (inactive) |  | 6.37 µM (inactive) | 2.71 µM (inactive) | 5.58 µM (inactive) | 4.35 µM (inactive) |
| Cn1c(=O)oc2cc(C3CCC(=O)N3Cc3csc(-c4ccccc4)n3)ccc21 (stereo not given) | > 100 µM (inactive) | > 100 µM (inactive) | > 100 µM (inactive) | > 100 µM (inactive) | > 100 µM (inactive) | > 100 µM (inactive) | > 100 µM (inactive) | > 100 µM (inactive) | > 100 µM (inactive) | > 100 µM (inactive) | > 100 µM (inactive) | > 100 µM (inactive) | > 100 µM (inactive) | 39.9 µM (inactive) | > 100 µM (inactive) | > 100 µM (inactive) |  | > 100 µM (inactive) |
| Cc1ccccc1C1CC(c2ccccc2)=NO1 (stereo not given) | > 100 µM (inactive) | > 100 µM (inactive) | > 100 µM (inactive) | > 100 µM (inactive) | > 100 µM (inactive) | > 100 µM (inactive) | > 100 µM (inactive) | > 100 µM (inactive) |  | > 100 µM (inactive) | > 100 µM (inactive) | > 100 µM (inactive) | > 100 µM (inactive) |  | > 100 µM (inactive) | > 100 µM (inactive) | > 100 µM (inactive) | > 100 µM (inactive) |
| Cc1c(C2Cc3ccccc3N2)c2ccccc2n1C (stereo not given) | > 100 µM (inactive) | > 100 µM (inactive) | > 100 µM (inactive) | > 100 µM (inactive) | > 100 µM (inactive) | > 100 µM (inactive) | > 100 µM (inactive) |  | > 100 µM (inactive) | > 100 µM (inactive) | > 100 µM (inactive) | > 100 µM (inactive) | > 100 µM (inactive) | > 100 µM (inactive) | > 100 µM (inactive) | > 100 µM (inactive) |  |  |
| CCc1cccc(C)c1NC(=O)CCc1n[nH]c(=S)o1 | > 100 µM (inactive) | > 100 µM (inactive) | > 100 µM (inactive) | > 100 µM (inactive) | > 100 µM (inactive) | > 100 µM (inactive) | > 100 µM (inactive) | > 100 µM (inactive) |  | > 100 µM (inactive) | > 100 µM (inactive) | > 100 µM (inactive) | > 100 µM (inactive) |  | > 100 µM (inactive) | > 100 µM (inactive) | > 100 µM (inactive) | 21.6 µM (inactive) |
| O=[N+]([O-])C(=C1c2ccccc2-c2ccccc21)[N+](=O)[O-] |  | 62.8 µM (inactive) | > 100 µM (inactive) |  | > 10 µM (inactive) | 70.5 µM (inactive) | > 100 µM (inactive) | > 100 µM (inactive) | 83.4 µM (inactive) | 69.2 µM (inactive) | > 100 µM (inactive) |  | 61.5 µM (inactive) | > 100 µM (inactive) | > 100 µM (inactive) | 20.9 µM (inactive) |  | 44 µM (inactive) |
| CN(CCCN1C(=O)c2cccc3cc([N+](=O)[O-])cc(c23)C1=O)CCN(C)CCCN1C(=O)c2cccc3cc([N+](=O)[O-])cc(c23)C1=O | > 39.3 µM (inactive) | 17.9 µM (inactive) | 31.8 µM (inactive) | 25.9 µM (inactive) | > 39.3 µM (inactive) | 21.2 µM (inactive) | 15.2 µM (inactive) | 25.5 µM (inactive) |  | > 39.3 µM (inactive) | 2.74 µM (inactive) | 17.4 µM (inactive) | 16 µM (inactive) | 33 µM (inactive) | 31.9 µM (inactive) | 29 µM (inactive) |  | 2.23 µM (inactive) |
| O=C(Cc1nc2ccccc2s1)C(=O)Nc1ccc(Cl)cc1 | > 100 µM (inactive) | > 100 µM (inactive) | > 100 µM (inactive) | > 100 µM (inactive) | > 100 µM (inactive) | > 100 µM (inactive) | > 100 µM (inactive) | > 100 µM (inactive) | > 100 µM (inactive) | > 100 µM (inactive) | > 100 µM (inactive) | > 100 µM (inactive) | > 100 µM (inactive) |  | > 100 µM (inactive) | > 100 µM (inactive) | > 100 µM (inactive) | > 100 µM (inactive) |
| CC1C=C(OC(=O)c2ccccc2)C(=O)C(n2cc(F)c(=O)[nH]c2=O)O1 (stereo not given) | > 100 µM (inactive) | 59.7 µM (inactive) | 27.8 µM (inactive) | 51.2 µM (inactive) | 53.6 µM (inactive) | 5.56 µM (inactive) | 97.3 µM (inactive) | 53.1 µM (inactive) |  | > 100 µM (inactive) | 84.3 µM (inactive) | 91 µM (inactive) | > 100 µM (inactive) |  | 62.1 µM (inactive) | > 100 µM (inactive) | > 100 µM (inactive) | 23.9 µM (inactive) |
| CCCc1n[nH]c(CCC(=O)N(Cc2ccccc2)Cc2ccccc2)c1CC | > 100 µM (inactive) | > 100 µM (inactive) | > 100 µM (inactive) | > 100 µM (inactive) | > 100 µM (inactive) | > 100 µM (inactive) |  | > 100 µM (inactive) | > 100 µM (inactive) | > 100 µM (inactive) | > 100 µM (inactive) | > 100 µM (inactive) | > 100 µM (inactive) | > 100 µM (inactive) | > 100 µM (inactive) | > 100 µM (inactive) |  | > 100 µM (inactive) |
| CCOC(=O)C12CCCC1(O)N(NC(=O)OC(C)(C)C)C(C)=C2C(=O)OC (stereo not given) | > 100 µM (inactive) | > 100 µM (inactive) | > 100 µM (inactive) | > 100 µM (inactive) | > 100 µM (inactive) | > 100 µM (inactive) | > 100 µM (inactive) | > 10 µM (inactive) | > 100 µM (inactive) | > 100 µM (inactive) | > 100 µM (inactive) |  | > 100 µM (inactive) |  | > 100 µM (inactive) | > 100 µM (inactive) | > 100 µM (inactive) | > 100 µM (inactive) |
| NC(N)NCCCc1cn2c(n1)C1CCCN1C(=O)C2Cc1ccccc1 (stereo not given) | > 100 µM (inactive) | > 100 µM (inactive) | > 100 µM (inactive) | > 100 µM (inactive) | > 100 µM (inactive) | > 100 µM (inactive) | > 100 µM (inactive) | > 100 µM (inactive) | > 100 µM (inactive) | > 100 µM (inactive) | > 100 µM (inactive) | > 100 µM (inactive) | > 100 µM (inactive) | > 100 µM (inactive) | > 100 µM (inactive) | > 100 µM (inactive) |  | > 100 µM (inactive) |
| NC(CCCCNCc1ccccc1O)C(=O)O (stereo not given) | > 100 µM (inactive) | > 100 µM (inactive) | > 100 µM (inactive) | > 100 µM (inactive) | > 100 µM (inactive) | > 100 µM (inactive) | > 100 µM (inactive) | > 100 µM (inactive) | > 100 µM (inactive) | > 100 µM (inactive) | > 100 µM (inactive) | > 100 µM (inactive) | > 100 µM (inactive) |  | > 100 µM (inactive) | > 100 µM (inactive) | > 100 µM (inactive) | > 100 µM (inactive) |
| COc1ccc(NC(=O)CC2S/C(=N\c3ccccc3C)NC2=O)c([N+](=O)[O-])c1 (stereo not given) | > 100 µM (inactive) | > 100 µM (inactive) | > 100 µM (inactive) | > 100 µM (inactive) | > 100 µM (inactive) | > 100 µM (inactive) | > 100 µM (inactive) | > 100 µM (inactive) | > 100 µM (inactive) | > 100 µM (inactive) | > 100 µM (inactive) |  | > 100 µM (inactive) |  |  | > 100 µM (inactive) | > 100 µM (inactive) | > 100 µM (inactive) |
